Results taken from patent US4292321A, “1,3,8-Triazaspirodecane-4-ones, pharmaceutical compositions thereof and method of use thereof” (Warner-Lambert Company, priority 1980, dated 1981).
Where a name gives a salt, the structure may show the parent alone. Read-outs that look alike come from different tables or passages of the source.

Target: T1, dopamine receptor (Bos taurus, UniProt P20288)
T1 construct: from tissue
Test: 3H-haloperidol receptor binding assay (HRBA)
Conditions: for inhibition at 0.01 µM / inhibition at 0.1 µM / inhibition at 0.001 µM: read-out: inhibition of 3H-haloperidol binding
From the text: The compounds of this invention are useful because of their valuable pharmacological properties. […] As with other known neuroleptics, the compounds of this invention readily displace ^3 H-haloperidol from dopamine receptor binding sights in the ^3 H-haloperidol receptor binding assay (HRBA). […] The HRBA screen is described by I. Creese, D. R. Burt and S. H. Snyder, Science 142: 480 (1976) and by B. Seeman, T. Lee, M. Chani-Wong and K. Wong, Nature 261: 717 […].

T1 sequence (P20288 whole entry): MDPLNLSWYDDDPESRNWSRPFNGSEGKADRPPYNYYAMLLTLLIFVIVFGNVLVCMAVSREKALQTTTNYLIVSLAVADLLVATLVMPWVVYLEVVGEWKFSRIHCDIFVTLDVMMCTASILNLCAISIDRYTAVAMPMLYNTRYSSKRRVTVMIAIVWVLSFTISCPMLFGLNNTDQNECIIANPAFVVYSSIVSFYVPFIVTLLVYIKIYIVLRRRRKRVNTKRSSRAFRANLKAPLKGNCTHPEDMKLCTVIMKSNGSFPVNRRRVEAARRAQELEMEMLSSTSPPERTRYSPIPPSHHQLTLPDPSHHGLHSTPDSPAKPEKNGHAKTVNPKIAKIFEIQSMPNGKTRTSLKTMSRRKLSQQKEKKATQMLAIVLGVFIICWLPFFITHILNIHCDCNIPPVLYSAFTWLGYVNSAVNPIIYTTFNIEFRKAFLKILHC

O=c1[nH]c2ccccc2n1C1=CCN(CCCN(c2ccc(F)cc2)c2ccc(F)cc2)CC1 [Example 7, 1-[1-[3-[Bis(4-fluorophenyl)amino]propyl]-1,2,3,6-tetrahydro-4-pyridinyl]-1,3-dihydro-2H-benzimidazol-2-one hydrochloride]
inhibition at 0.01 µM: ~22%
inhibition at 0.1 µM: ~67%

O=c1[nH]c2ccccc2n1C1CCN(CCCN(c2ccc(F)cc2)c2ccc(F)cc2)CC1 [Example 6, 1-(1[3-[Bis(4-fluorophenyl)amino]propyl]-4-piperidyl)-1,3-dihydro-2H-benzimidazol-2-one]
inhibition at 0.001 µM (1 n mole concentration): ~50%
inhibition at 0.01 µM (10 n moles concentration): ~78%

OC1(c2cccc(F)c2)CCN(CCCN(c2ccccc2)c2ccccc2)CC1 [Example 18, 1-[3-(Diphenylamino)propyl]-4-(3-fluorophenyl)-4-piperidinol ethanedioate]
inhibition at 0.01 µM: ~23%
inhibition at 0.1 µM: ~83%

FC(F)(F)c1cccc(OC2=CCN(CCCN(c3ccccc3)c3ccccc3)CC2)c1 [Example 23, 3,6-Dihydro-N,N-diphenyl-4-[(3-trifluoromethyl)phenoxy]-1(2H)-pyridinepropanamine ethanedioate]
inhibition at 0.01 µM (10 n moles concentration): ~6%
inhibition at 0.1 µM (100 n moles concentration): ~24%

CCCSc1ccccc1N1CCN(CCCN(c2ccccc2)c2ccccc2)CC1 [Example 34, N,N-diphenyl-4-[2-(propylthio)phenyl]-1-piperazinepropanamine ethanedioate]
inhibition at 0.01 µM: ~6%
inhibition at 0.1 µM: ~64%

CC(C)Sc1ccccc1N1CCN(CCCN(c2ccccc2)c2ccccc2)CC1.Cl [Example 33, 4-[2-[(1-Methylethyl)thio]phenyl]-N,N-diphenyl-1-piperazinepropanamine hydrochloride]
inhibition of 3H-haloperidol binding (10 n moles concentration): no inhibition
inhibition at 0.1 µM: ~28%

OC1(c2ccc(Cl)cc2)CCN(CCCN(c2ccc(F)cc2)c2ccc(F)cc2)CC1 [Example 20, 1-(3-[Bis(4-fluorophenyl)amino]propyl)-4-(4-chlorophenyl)-4-piperidinol ethanedioate]
inhibition at 0.01 µM: ~74%
inhibition at 0.1 µM: ~100%

Fc1cccc(C2=CCN(CCCN(c3ccccc3)c3ccccc3)CC2)c1.O=C(O)C(=O)O [Example 40, 4-(3-Fluorophenyl)-1,2,3,6-tetrahydro-N,N-diphenyl-1-pyridinepropanamine ethanedioate]
inhibition of 3H-haloperidol binding (10 n moles concentration): no inhibition
inhibition at 0.1 µM: ~23%

c1ccc(CN2CCN(CCCN(c3ccccc3)c3ccccc3)CC2)cc1 [Example 32, N,N-diphenyl-4-(phenylmethyl)-1-piperazinepropanamine ethanedioate]
inhibition at 0.01 µM: ~16%
inhibition at 0.1 µM: ~33%

COc1ccccc1N1CCN(CCCN(c2ccc(F)cc2)c2ccc(F)cc2)CC1 [Example 35, N,N-bis(4-fluorophenyl)-4-(2-methoxyphenyl)-1-piperazinepropanamine dihydrochloride]
inhibition at 0.01 µM: ~28%
inhibition at 0.1 µM: ~79%

Fc1ccc(OC2=CCN(CCCN(c3ccc(F)cc3)c3ccc(F)cc3)CC2)cc1 [Example 25, 4-(4-Fluorophenoxy)-N,N-bis(4-fluorophenyl)-1,2,3,6-tetrahydro-1-pyridinepropanamine-d-2,3-dihydroxybutanedioate]
inhibition of 3H-haloperidol binding (1 n mole concentration): no inhibition
inhibition at 0.01 µM (10 n moles concentration): ~43%

c1ccc(N(CCCN2CCC3(CC2)OCCO3)c2ccccc2)cc1 [Example 45, N,N-diphenyl-1,4-dioxo-8-azaspiro[4,5]decane-8-propanamine ethanedioate.]
inhibition at 0.01 µM (10 n moles concentration): ~10%
inhibition at 0.1 µM (100 n moles concentration): ~26%

Fc1ccc(NC2CCN(CCCN(c3ccccc3)c3ccccc3)CC2)cc1 [Example 42, 4-[(4-Fluorophenyl)amino]-N,N-diphenyl-1-piperidinepropanamine ethanedioate]
inhibition at 0.01 µM: ~26%
inhibition at 0.1 µM: ~90%

O=C(c1ccc(Cl)cc1)C1CCN(CCCN(c2ccc(F)cc2)c2ccc(F)cc2)CC1 [Example 44, [1-[3-[Bis(4-fluorophenyl)amino]propyl]-4-piperidinyl]-(4-chlorophenyl)methanone ethanedioate]
inhibition at 0.01 µM: ~8%
inhibition at 0.1 µM: ~69%

FC(F)(F)c1cccc(OC2CCN(CCCN(c3ccccc3)c3ccccc3)CC2)c1.O=C(O)C(=O)O [Example 24, N,N-diphenyl-4-[3-(trifluoromethyl)phenoxy]-1-piperidinepropanamine ethanedioate]
inhibition of 3H-haloperidol binding (10 n moles concentration): no inhibition
inhibition at 0.1 µM: ~8%

O=C1NCN(c2ccc(F)cc2)C12CCN(CCCN(c1ccc(F)cc1)c1ccc(F)cc1)CC2 [Example 5, 8-[3-[Bis-(4-fluorophenyl)amino]propyl]-1-(4-fluorophenyl)-1,3,8-triazaspiro[4,5]decan-4-one]
inhibition at 0.01 µM: ~84%
inhibition at 0.1 µM: ~100%

c1ccc(N(CCCNC2=NC3CCC2CC3)c2ccccc2)cc1 [Example 46, N'-2-azabicyclo[2,2,2]-oct-2-en-3-yl-N,N-diphenyl-1,3-propanediamine]
inhibition at 0.01 µM (10 n moles concentration): ~3%
inhibition at 0.1 µM (100 n moles concentration): ~12%

Fc1ccc(N(CCCN2CCC(n3c(=S)[nH]c4ccccc43)CC2)c2ccc(F)cc2)cc1 [Example 8, 1-[1-(3-[Bis(4-fluorophenyl)amino]propyl)-4-piperidinyl]-1,3-dihydro-2H-benzimidazole-2-thione]
inhibition at 0.01 µM (10 n moles concentration): ~28%
inhibition at 0.1 µM (100 n moles concentration): ~89%

Cc1cccc(N(CCCN2CCC(n3c(=O)[nH]c4ccccc43)CC2)c2ccccc2)c1 [Example 11, 1,3-Dihydro-1-[1-(3-[(3-methylphenyl)phenylamino]propyl-4-piperidinyl]-2H-benzimidazol-2-one hydrochloride]
inhibition at 0.01 µM (10 n moles concentration): ~61%
inhibition at 0.1 µM (100 n moles concentration): ~91%

OC1(c2ccc(F)cc2)CCN(CCCN(c2ccc(F)cc2)c2ccc(F)cc2)CC1 [Example 19, 4-(4-Fluorophenyl)-1-(3-[bis(4-fluorophenyl)amino]propyl)-4-piperidinol hydrochloride]
inhibition at 0.001 µM: ~25%
inhibition at 0.01 µM: ~82%

O=C1NCN(c2ccc(F)cc2)C12CCN(CCCN(c1ccccc1)c1ccccc1)CC2 [Example 2, 8-[3-(Diphenylamino)propyl]-1-(4-fluorophenyl)-1,3,8-triazaspiro[4,5]decan-4-one]
inhibition at 0.01 µM: ~76%
inhibition at 0.1 µM: ~85%

COc1ccc(N2CNC(=O)C23CCN(CCCN(c2ccccc2)c2ccccc2)CC3)cc1 [Example 4, 8-[3-(Diphenylamino)propyl]-1-(4-methoxyphenyl)-1,3,8-triazaspiro[4,5]decan-4-one]
inhibition at 0.01 µM: ~67%
inhibition at 0.1 µM: ~98%

Clc1ccc(OC2=CCN(CCCN(c3ccccc3)c3ccccc3)CC2)cc1Cl.O=C(O)C(=O)O [Example 26, 4-(3,4-Dichlorophenoxy)-3,6-dihydro-N,N-diphenyl-1(2H)-pyridinepropanamine ethanedioate]
inhibition of 3H-haloperidol binding (10 n moles concentration): no inhibition
inhibition at 0.1 µM: ~26%

Fc1ccc(N2CCN(CCCN(c3ccccc3)c3ccccc3)CC2)cc1 [Example 31, 4-(4-Fluorophenyl)-N,N-diphenyl-1-piperazinepropanamine]
inhibition of 3H-haloperidol binding (10 n moles concentration): no inhibition
inhibition at 0.1 µM (100 n moles concentration): ~12%

c1ccc(OC2CCN(CCCN(c3ccccc3)c3ccccc3)CC2)cc1 [Example 22, 4-Phenoxy-N,N-diphenyl-1-piperidinepropanamine ethanedioate]
inhibition at 0.01 µM: ~7%
inhibition at 0.1 µM: ~59%
